Data as given in patent US20170334899A1, “AMINO-SUBSTITUTED ISOTHIAZOLES” (Bayer Pharma Aktiengesellschaft, priority 2014, published 2017).

Molecular target: T1, human kinase Mps-1 (Homo sapiens, UniProt P33981)
T1 construct: N-terminally GST-tagged human full length recombinant Mps-1 kinase; GST (N); purchased Invitrogen, Karslruhe, Germany PV4071
T1 sequence (P33981 1-857): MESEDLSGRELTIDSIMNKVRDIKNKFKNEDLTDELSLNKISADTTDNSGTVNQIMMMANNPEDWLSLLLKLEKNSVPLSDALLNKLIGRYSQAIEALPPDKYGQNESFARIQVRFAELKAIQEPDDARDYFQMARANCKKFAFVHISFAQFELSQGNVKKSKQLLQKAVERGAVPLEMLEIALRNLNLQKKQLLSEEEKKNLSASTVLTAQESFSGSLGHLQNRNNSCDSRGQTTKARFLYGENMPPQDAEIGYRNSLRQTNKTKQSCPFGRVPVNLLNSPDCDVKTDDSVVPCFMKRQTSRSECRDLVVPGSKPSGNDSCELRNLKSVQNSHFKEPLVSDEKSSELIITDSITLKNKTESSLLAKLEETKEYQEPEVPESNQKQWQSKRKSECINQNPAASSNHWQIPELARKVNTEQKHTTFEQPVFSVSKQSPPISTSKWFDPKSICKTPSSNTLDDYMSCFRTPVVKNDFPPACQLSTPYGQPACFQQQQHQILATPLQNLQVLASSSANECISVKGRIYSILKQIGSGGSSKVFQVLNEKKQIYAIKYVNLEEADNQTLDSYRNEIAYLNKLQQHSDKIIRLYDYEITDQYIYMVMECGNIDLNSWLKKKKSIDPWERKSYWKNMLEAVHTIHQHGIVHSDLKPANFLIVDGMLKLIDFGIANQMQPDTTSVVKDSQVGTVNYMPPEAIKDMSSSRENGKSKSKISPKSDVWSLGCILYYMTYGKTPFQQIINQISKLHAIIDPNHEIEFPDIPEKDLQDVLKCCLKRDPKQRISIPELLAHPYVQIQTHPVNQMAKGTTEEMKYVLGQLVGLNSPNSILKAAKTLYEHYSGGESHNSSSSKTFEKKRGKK
Assay: Mps-1 kinase assay (TR-FRET)
Format: biochemical
Settings: Mps-1 TR-FRET kinase assay; avg; read-out: Mps1 avg (IC50 [mol/l])
How it was run: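 Inhibition normalised between uninhibited reaction (0%) and enzyme-free wells (100%), using the blank-corrected TR-FRET 665/620 nm ratio after EDTA stop. Reaction: ~0.5 nM GST-Mps-1 full length, 10 μM ATP, 1 μM biotin-peptide, 60 min at 22 °C, after 15 min compound pre-binding, pH 7.7.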

SMILES | IC50
Cc1nsc(Nc2cncc(C(F)(F)F)n2)c1C(=O)Nc1ccc(C(=O)N2CCN(CCF)CC2)cc1 [Example 274, N-(4-{[4-(2-fluoroethyl)piperazin-1-yl]carbonyl}phenyl)-3-methyl-5-{[6-(trifluoromethyl)pyrazin-2-yl]amino}-1,2-thiazole-4-carboxamide] | > 20 µM
Cc1nsc(Nc2cncc(C(F)(F)F)n2)c1C(=O)Nc1ccc(F)c(OC2CCN(CC(F)(F)F)CC2)c1 [Example 267, N-(4-fluoro-3-{[1-(2,2,2-trifluoroethyl)piperidin-4-yl]oxy}phenyl)-3-methyl-5-{[6-(trifluoromethyl)pyrazin-2-yl]amino}-1,2-thiazole-4-carboxamide] | > 20 µM
CCNC(=O)c1cccc(NC(=O)c2c(C)nsc2Nc2cnc3ccccc3n2)c1 [Example 251, N-[3-(ethylcarbamoyl)phenyl]-3-methyl-5-(quinoxalin-2-ylamino)-1,2-thiazole-4-carboxamide] | > 20 µM
Cc1nsc(Nc2cncc(C(F)(F)F)n2)c1C(=O)Nc1ccc(C(=O)N2CCN(CC(F)(F)F)CC2)cc1 [Example 272, 3-methyl-N-(4-{[4-(2,2,2-trifluoroethyl)piperazin-1-yl]carbonyl}phenyl)-5-{[6-(trifluoromethyl)pyrazin-2-yl]amino}-1,2-thiazole-4-carboxamide] | > 20 µM
COC(=O)CCc1cccc(NC(=O)c2c(C)nsc2Nc2cnc3ccccc3n2)c1 [Example 257, methyl 3-[3-({[3-methyl-5-(quinoxalin-2-ylamino)-1,2-thiazol-4-yl]carbonyl}amino)phenyl]propanoate] | > 20 µM
Cc1nsc(Nc2cc(C#N)ccn2)c1C(=O)Nc1ccc(OC2CCN(CC(F)(F)F)CC2)nc1 [Example 25, 5-[(4-Cyanopyridin-2-yl)amino]-3-methyl-N-(6-{[1-(2,2,2-trifluoroethyl)piperidin-4-yl]oxy}pyridin-3-yl)-1,2-thiazole-4-carboxamide] | ≥ 20 µM
COC(=O)CCCc1ccc(NC(=O)c2c(C)nsc2Nc2cc(C#N)ccn2)cc1 [Example 256, methyl 4-{4-[({5-[(4-cyanopyridin-2-yl)amino]-3-methyl-1,2-thiazol-4-yl}carbonyl)amino]phenyl}butanoate] | > 20 µM
CCN1CCN(C(=O)c2ccc(NC(=O)c3c(C)nsc3Nc3cnc(C(F)(F)F)cn3)cc2)CC1 [Example 261, N-{4-[(4-ethylpiperazin-1-yl)carbonyl]phenyl}-3-methyl-5-{[5-(trifluoromethyl)pyrazin-2-yl]amino}-1,2-thiazole-4-carboxamide] | > 20 µM
Cc1nsc(Nc2cnc(C(F)(F)F)cn2)c1C(=O)Nc1cccc(NC(=O)OC(C)(C)C)c1 [Example 284, 3-tert-butyl (3-{[(3-methyl-5-{[5-(trifluoromethyl)pyrazin-2-yl]amino}-1,2-thiazol-4-yl)carbonyl]amino}phenyl)carbamate] | > 20 µM
Cc1nsc(Nc2cc(C#N)ccn2)c1C(=O)Nc1ccc(OC2CCN(C(=O)OC(C)(C)C)CC2)nc1 [Example 23, tert-Butyl 4-({5-[({5-[(4-cyanopyridin-2-yl)amino]-3-methyl-1,2-thiazol-4-yl}-carbonyl)amino]pyridin-2-yl}oxy)piperidine-1-carboxylate] | 17 µM
Cc1nsc(Nc2cc(C#N)ccn2)c1C(=O)Nc1ccc(OC2CCN(CC(F)F)CC2)nc1 [Example 263, 5-[(4-cyanopyridin-2-yl)amino]-N-(6-{[1-(2,2-difluoroethyl)piperidin-4-yl]oxy}pyridin-3-yl)-3-methyl-1,2-thiazole-4-carboxamide] | > 20 µM
Cc1nsc(Nc2cnc(C(F)(F)F)cn2)c1C(=O)Nc1ccc(C(=O)N2CCN(CC(F)(F)F)CC2)cc1 [Example 260, 3-methyl-N-(4-{[4-(2,2,2-trifluoroethyl)piperazin-1-yl]carbonyl}phenyl)-5-{[5-(trifluoromethyl)pyrazin-2-yl]amino}-1,2-thiazole-4-carboxamide] | > 20 µM
Cc1nsc(Nc2cc(C#N)ccn2)c1C(=O)Nc1cccc(C(=O)NC(C)C)c1 [Example 254, 5-[(4-cyanopyridin-2-yl)amino]-N-[3-(isopropylcarbamoyl)phenyl]-3-methyl-1,2-thiazole-4-carboxamide] | > 20 µM

Second part, the compound after the results:

IC50 | SMILES
> 20 µM | Cc1nsc(Nc2cnc(C(F)(F)F)cn2)c1C(=O)Nc1ccc(F)c(OCC2CCN(CCC(F)(F)F)CC2)c1 [Example 311, N-(4-fluoro-3-{[1-(3,3,3-trifluoropropyl)piperidin-4-yl]methoxy}phenyl)-3-methyl-5-{[5-(trifluoromethyl)pyrazin-2-yl]amino}-1,2-thiazole-4-carboxamide]
> 20 µM | Cc1nsc(Nc2cnc3ccccc3n2)c1C(=O)Nc1cccc(NS(=O)(=O)C2CN(CCC(F)(F)F)C2)c1 [Example 288, 3-methyl-5-(quinoxalin-2-ylamino)-N-[3-({[1-(3,3,3-trifluoropropyl)azetidin-3-yl]sulfonyl}amino)phenyl]-1,2-thiazole-4-carboxamide]
≥ 20 µM | Cc1nsc(Nc2cnc(C(F)(F)F)cn2)c1C(=O)Nc1ccc(OC2CCN(C(CF)CF)C2)nc1 (stereo not shown) [Example 313, N-(6-{[1-(1,3-difluoropropan-2-yl)pyrrolidin-3-yl]oxy}pyridin-3-yl)-3-methyl-5-{[5-(trifluoromethyl)pyrazin-2-yl]amino}-1,2-thiazole-4-carboxamide]
> 20 µM | Cc1nsc(Nc2cnc(C(F)(F)F)cn2)c1C(=O)Nc1ccc(OCCCNCCC(F)(F)F)nc1 [Example 294, 3-methyl-5-{[5-(trifluoromethyl)pyrazin-2-yl]amino}-N-(6-{3-[(3,3,3-trifluoropropyl)amino]propoxy}pyridin-3-yl)-1,2-thiazole-4-carboxamide]
≥ 20 µM | Cc1nsc(Nc2cnc(C(F)(F)F)cn2)c1C(=O)Nc1ccc(F)c(OCC2CCN(C(CF)CF)CC2)c1 [Example 312, N-(3-{[1-(1,3-difluoropropan-2-yl)piperidin-4-yl]methoxy}-4-fluorophenyl)-3-methyl-5-{[5-(trifluoromethyl)pyrazin-2-yl]amino}-1,2-thiazole-4-carboxamide]
> 20 µM | Cc1nsc(Nc2cncc(C(F)(F)F)n2)c1C(=O)Nc1ccc(OC2CCN(CCC(F)(F)F)CC2)nc1 [Example 304, 3-methyl-5-{[6-(trifluoromethyl)pyrazin-2-yl]amino}-N-(6-{[1-(3,3,3-trifluoropropyl)piperidin-4-yl]oxy}pyridin-3-yl)-1,2-thiazole-4-carboxamide]
> 20 µM | Cc1nsc(Nc2cnc(C(F)(F)F)cn2)c1C(=O)Nc1ccc(F)c(OCCCN(C)CC(F)F)c1 [Example 301, N-(3-{3-[(2,2-difluoroethyl)(methyl)amino]propoxy}-4-fluorophenyl)-3-methyl-5-{[5-(trifluoromethyl)pyrazin-2-yl]amino}-1,2-thiazole-4-carboxamide]
≥ 20 µM | Cc1nsc(Nc2cnc(C(F)(F)F)cn2)c1C(=O)Nc1ccc(F)c(OCC2CCN(CC(F)F)CC2)c1 [Example 308, N-(3-{[1-(2,2-difluoroethyl)piperidin-4-yl]methoxy}-4-fluorophenyl)-3-methyl-5-{[5-(trifluoromethyl)pyrazin-2-yl]amino}-1,2-thiazole-4-carboxamide]
> 20 µM | Cc1nsc(Nc2cnc(C(F)(F)F)cn2)c1C(=O)Nc1ccc(F)c(OCC2CCN(CCF)C2)c1 (stereo not shown) [Example 317, N-(4-fluoro-3-{[1-(2-fluoroethyl)pyrrolidin-3-yl]methoxy}phenyl)-3-methyl-5-{[5-(trifluoromethyl)pyrazin-2-yl]amino}-1,2-thiazole-4-carboxamide]
≥ 20 µM | Cc1nsc(Nc2cnc(C(F)(F)F)cn2)c1C(=O)Nc1ccc(F)c(OC2CCN(CC(F)F)C2)c1 (stereo not shown) [Example 314, N-(3-{[1-(2,2-difluoroethyl)pyrrolidin-3-yl]oxy}-4-fluorophenyl)-3-methyl-5-{[5-(trifluoromethyl)pyrazin-2-yl]amino}-1,2-thiazole-4-carboxamide]
> 20 µM | Cc1nsc(Nc2cnc(C(F)(F)F)cn2)c1C(=O)Nc1ccc(OCCCNCC(F)(F)F)nc1 [Example 292, 3-methyl-N-(6-{3-[(2,2,2-trifluoroethyl)amino]propoxy}pyridin-3-yl)-5-{[5-(trifluoromethyl)pyrazin-2-yl]amino}-1,2-thiazole-4-carboxamide]
≥ 20 µM | Cc1nsc(Nc2cnc(C(F)(F)F)cn2)c1C(=O)Nc1ccc(OCCNCC(F)F)nc1 [Example 305, N-(6-{2-[(2,2-difluoroethyl)amino]ethoxy}pyridin-3-yl)-3-methyl-5-{[5-(trifluoromethyl)pyrazin-2-yl]amino}-1,2-thiazole-4-carboxamide]
